Assay results as given in patent US7388111B2, “Non-nucleoside reverse transcriptase inhibitors” (Roche Palo Alto LLC, priority 2005, dated 2008).

Assays:
HIV-1 RT = HIV-1 RT (Human immunodeficiency virus type 1 group M subtype B, UniProt P03366); experiment: HIV Reverse Transcriptase Assay: Inhibitor IC50 Determination; assay type: biochemical; settings: purified recombinant enzyme, poly(rA)/oligo(dT)16 template-primer, 37° C. 30 min
Description: HIV Reverse Transcriptase Assay: Inhibitor IC50 Determination
HIV-1 RT assay was carried out in 96-well Millipore MultiScreen MADVNOB50 plates using purified recombinant enzyme and a poly(rA)/oligo(dT)16 template-primer in a total volume of 50 μL. The assay constituents were 50 mM Tris/HCl, 50 mM NaCl, 1 mM EDTA, 6 mM MgCl2, 5 μM dTTP, 0.15 μCi [^3H] dTTP, 5 μg/ml poly (rA) pre annealed to 2.5 μg/ml oligo (dT)16 and a range of inhibitor concentrations in a final concentration of 10% DMSO. Reactions were initiated by adding 4 nM HIV-1 RT and after incubation at 37° C. for 30 min, they were stopped by the addition of 50 μl ice cold 20% TCA and allowed to precipitate at 4° C. for 30 min. The precipitates were collected by applying vacuum to the plate and sequentially washing with 3×200 μl of 10% TCA and 2×200 μl 70% ethanol. Finally, the plates were dried and radioactivity counted in a Packard TopCounter after the addition of 25 μl scintillation fluid per well. IC50's were calculated by plotting % inhibition versus log10 inhibitor concentrations.

HIV-1 = experiment: Anti-Viral Assay (method of Pauwels et al.); assay type: cell-based; settings: Human immunodeficiency virus 1, read-out: Anti-Viral Assay
Description: Anti-viral assays were carried out by the method described by R. E. Pauwels et al. J. Virol. Methods 1988 20(4):309-322.

Row | Structure (SMILES) | IC50 (HIV-1 RT) | EC50 (HIV-1) | melting point
1 | Cc1cc(C#N)ccc1Oc1ccc(CC(=O)Nc2ccc(S(N)(=O)=O)cc2Br)c(C)c1C [Compound I-24, N-(2-Bromo-4-sulfamoyl-phenyl)-2-[4-(4-cyano-2-methyl-phenoxy)-2,3-dimethyl-phenyl]-acetamide] | 202 nM | 2.6 nM | –
2 | Cc1cc(S(N)(=O)=O)ccc1NC(=O)Cc1ccc(Oc2ccc(C#N)cc2C)c(Cl)c1 [Compound I-43, 2-[3-Chloro-4-(4-cyano-2-methyl-phenoxy)-phenyl]-N-(2-methyl-4-sulfamoyl-phenyl)-acetamide] | 695 nM | – | –
3 | Cc1cc(C#N)ccc1Oc1ccc(CC(=O)Nc2ccc(S(N)(=O)=O)cc2Cl)cc1Cl [Compound I-44, 2-[3-Chloro-4-(4-cyano-2-methyl-phenoxy)-phenyl]-N-(2-chloro-4-sulfamoyl-phenyl)-acetamide] | 71.5 nM | – | –
4 | NS(=O)(=O)c1ccc(NC(=O)Cc2ccc(Oc3c(Cl)cccc3Cl)c(Cl)c2)c(Cl)c1 [Compound I-45, 2-[3-Chloro-4-(2,6-dichloro-phenoxy)-phenyl]-N-(2-chloro-4-sulfamoyl-phenyl)-acetamide] | 63.4 nM | – | –
5 | N#Cc1cc(Cl)cc(Oc2ccc(CC(=O)Nc3ccc(S(N)(=O)=O)cc3)cc2Br)c1 [Compound I-46, 2-[3-Bromo-4-(3-chloro-5-cyano-phenoxy)-phenyl]-N-(4-sulfamoyl-phenyl)-acetamide] | 6000 nM | – | –
6 | Cc1cc(S(N)(=O)=O)ccc1NC(=O)Cc1ccc(Oc2cc(Cl)cc(C#N)c2)c(Br)c1 [Compound I-47, 2-[3-Bromo-4-(3-chloro-5-cyano-phenoxy)-phenyl]-N-(2-methyl-4-sulfamoyl-phenyl)-acetamide] | 339 nM | – | 214.6 to 215.9 °C
7 | N#Cc1cc(Cl)cc(Oc2ccc(CC(=O)Nc3ccc(S(N)(=O)=O)cc3Cl)cc2Br)c1 [Compound I-48, 2-[3-Bromo-4-(3-chloro-5-cyano-phenoxy)-phenyl]-N-(2-chloro-4-sulfamoyl-phenyl)-acetamide] | 19.1 nM | – | 205 to 207.3 °C
8 | N#Cc1cc(Cl)cc(Oc2ccc(CC(=O)Nc3ccc(CS(N)(=O)=O)cc3)cc2Br)c1 [Compound I-49, 2-[3-Bromo-4-(3-chloro-5-cyano-phenoxy)-phenyl]-N-(4-sulfamoylmethyl-phenyl)-acetamide] | 2350 nM | – | 133.4 to 135.3 °C
9 | N#Cc1cc(Cl)cc(Oc2ccc(CC(=O)Nc3ccc(S(N)(=O)=O)cc3Br)cc2Br)c1 [Compound I-50, 2-[3-Bromo-4-(3-chloro-5-cyano-phenoxy)-phenyl]-N-(2-bromo-4-sulfamoyl-phenyl)-acetamide] | 13.5 nM | – | 168.1 to 170.4 °C
10 | COc1cc(CC(=O)Nc2ccc(S(N)(=O)=O)cc2C)ccc1Oc1cc(Cl)cc(C#N)c1 [Compound I-51, 2-[4-(3-Chloro-5-cyano-phenoxy)-3-methoxy-phenyl]-N-(2-methyl-4-sulfamoyl-phenyl)-acetamide] | 1800 nM | – | –
11 | COc1cc(CC(=O)Nc2ccc(S(N)(=O)=O)cc2Cl)ccc1Oc1cc(Cl)cc(C#N)c1 [Compound I-52, 2-[4-(3-Chloro-5-cyano-phenoxy)-3-methoxy-phenyl]-N-(2-chloro-4-sulfamoyl-phenyl)-acetamide] | 518 nM | – | –
12 | COc1cc(CC(=O)Nc2ccc(S(N)(=O)=O)cc2Br)ccc1Oc1cc(Cl)cc(C#N)c1 [Compound I-53, N-(2-Bromo-4-sulfamoyl-phenyl)-2-[4-(3-chloro-5-cyano-phenoxy)-3-methoxy-phenyl]-acetamide] | 394 nM | – | –
13 | COc1cc(CC(=O)Nc2ccc(S(N)(=O)=O)cc2C)ccc1Oc1ccc(C#N)cc1C [Compound I-54, 2-[4-(4-Cyano-2-methyl-phenoxy)-3-methoxy-phenyl]-N-(2-methyl-4-sulfamoyl-phenyl)-acetamide] | 2440 nM | – | –
14 | COc1cc(CC(=O)Nc2ccc(S(N)(=O)=O)cc2Cl)ccc1Oc1ccc(C#N)cc1C [Compound I-55, N-(2-Chloro-4-sulfamoyl-phenyl)-2-[4-(4-cyano-2-methyl-phenoxy)-3-methoxy-phenyl]-acetamide] | 419 nM | – | –
15 | COc1cc(CC(=O)Nc2ccc(S(N)(=O)=O)cc2Br)ccc1Oc1ccc(C#N)cc1C [Compound I-56, N-(2-Bromo-4-sulfamoyl-phenyl)-2-[4-(4-cyano-2-methyl-phenoxy)-3-methoxy-phenyl]-acetamide] | 282 nM | – | –
16 | Cc1cc(S(N)(=O)=O)ccc1NC(=O)Cc1ccc(Oc2cc(C#N)cc(C(F)F)c2)c(Br)c1 [Compound I-62, 2-[3-Bromo-4-(3-cyano-5-difluoromethyl-phenoxy)-phenyl]-N-(2-methyl-4-sulfamoyl-phenyl)-acetamide] | 116 nM | – | –
17 | N#Cc1cc(Oc2ccc(CC(=O)Nc3ccc(S(N)(=O)=O)cc3Cl)cc2Br)cc(C(F)F)c1 [Compound I-63, 2-[3-Bromo-4-(3-cyano-5-difluoromethyl-phenoxy)-phenyl]-N-(2-chloro-4-sulfamoyl-phenyl)-acetamide] | 53.1 nM | – | –
18 | N#Cc1cc(Oc2ccc(CC(=O)Nc3ccc(S(N)(=O)=O)cc3Br)cc2Br)cc(C(F)F)c1 [Compound I-64, 2-[3-Bromo-4-(3-cyano-5-difluoromethyl-phenoxy)-phenyl]-N-(2-bromo-4-sulfamoyl-phenyl)-acetamide] | 61.2 nM | – | –
19 | Cc1c(CC(=O)Nc2ccc(S(N)(=O)=O)cc2)ccc(Oc2cc(Cl)cc(C#N)c2)c1C [Compound I-65, 2-[4-(3-Chloro-5-cyano-phenoxy)-2,3-dimethyl-phenyl]-N-(4-sulfamoyl-phenyl)-acetamide] | 3120 nM | – | –
20 | Cc1cc(S(N)(=O)=O)ccc1NC(=O)Cc1ccc(Oc2cc(Cl)cc(C#N)c2)c(C)c1C [Compound I-66, 2-[4-(3-Chloro-5-cyano-phenoxy)-2,3-dimethyl-phenyl]-N-(2-methyl-4-sulfamoyl-phenyl)-acetamide] | 81.7 nM | – | –
